System: HIV
Experiment: Inhibition of HIV proliferation in CEM cells
Assay type: cell-based
Settings: 1 µM (0.6 µg/ml) of the test compound, 1 week
Method: CEM cells were inoculated in growth medium as defined in a) above, to a density of 2 x 10⁴ cells/ml. The inoculum was then seeded with a similar volume of serial 1 : 3 dilutions of the viral stock [a filtered preparation of the 48-hour culture supernatant of Molt4/HTLVIIIB cells prepared as described in Test Example 3 a) above]. The seeded inoculum was then cultured at 37°C under a 5% carbon dioxide atmosphere in the presence of 1 µM of the test compound (compound no. 14). After 1 week, the culture was spun down and the supernatant was collected. HIV antigen in the supernatant was determined as described in b) above.

(2S,3S)-[3-(N-3′-Hydroxyquinoxaline-2′-carbonyl-L-asparaginyl)amino-2-hydroxy-4-phenylbutyryl]-L-proline t-butyl ester [Compound No. 14]
spread of HIV (HIV antigen in the supernatant): sufficient to block the spread of HIV almost completely

Source: patent publication EP0498680A1, “New beta-amino-alpha-hydroxycarboxylic acids and their use” (Sankyo Company Limited, priority 1991, dated 1992)
